# Data: patent publication EP1212309B1, “CASPASE INHIBITOR” (LG Chem Investment, Ltd., priority 1999, dated 2001)
# Values joined by “and” are separate entries in the source; they are usually repeats but may differ in a detail not shown here. Identical values can stand only once. Like-named read-outs stand apart in the source and are kept apart here.
# Experiments:
# Jurkat T cell = assay: MTT assay of cell death induced by Anti-FAS antibody CH11; assay type: cell-based; conditions: Jurkat T cell treated with Anti-FAS antibody CH11, MTT, read-out: ED50 FAS Induced cell death
# WI38 cells = assay: Protection from IFNγ and anti-Fas antibody-induced apoptosis (XTT); assay type: cell-based, human; conditions: 100% when Fas antibody was not treated; for viability ratio: WI38 cells
# Procedure: WI38 cells (human embryonal lung fibroblast) were grown in a medium containing DMEM-10% FBS within 10cm diameter dishes until reaching at confluency. The cells were seeded into a 24-well plate at day 1 and incubated overnight while the volume of medium was maintained to 400µℓ. […] At day 3, each 100 µℓ of test compound was added to the cells after diluting the 10mM stock compound in DMSO to final concentrations of 50, 10, 2, and 0.4 µ M, respectively. The cells were incubated for 2 hrs in order for allowing the compound to enter into the cells and then treated with 40ng/well of anti-Fas antibody(apoptosis was induced 2 hrs after antibody was treated and the incubation was continued overnight). The control was not treated with Fas antibody. […] After coloring, 100-200µℓ of the supernatant was transferred to a 96-well plate and the absorbance at 490 nm was read with ELISA plate reader. For the blank, XTT solution was added to the well containing the medium only. Plotting was determined by comparing with the control group (100% when Fas antibody was not treated).
# caspase-1 = molecular target: T1, caspase-1 (Homo sapiens, UniProt P29466); assay: Screening on caspases inhibiting activity (recombinant enzyme, fluorogenic AMC substrate); assay type: biochemical; conditions: for Ki: Reversible Inhibitor
# T1 construct: made in house
# T1 sequence (P29466 120-297 limits assumed): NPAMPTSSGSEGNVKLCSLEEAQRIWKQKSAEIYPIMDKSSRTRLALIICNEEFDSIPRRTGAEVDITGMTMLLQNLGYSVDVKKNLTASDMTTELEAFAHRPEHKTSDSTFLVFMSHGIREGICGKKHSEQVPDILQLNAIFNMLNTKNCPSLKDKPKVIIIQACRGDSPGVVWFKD
# T1 sequence (P29466 317-404 limits assumed): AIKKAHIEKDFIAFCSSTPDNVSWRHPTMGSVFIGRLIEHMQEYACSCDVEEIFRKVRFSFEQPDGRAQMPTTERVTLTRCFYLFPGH
# Procedure: (§1) In the present experiment, recombinant caspases were purified from a transformed bacterium after human caspase genes were cloned into the expression vector pET, and then used in the experiment (Thornberry, N.A. et .al. Nature, 1992, 356, 768. Thombeny, N.A. Methods in Enzymology, 1994, 615.).
# (§2) Enzymatic activity was measured by a known procedure (Walker N.P.C. et al., Cell 1994, 78, 343). Briefly, 10 ng of recombinant protein was mixed with 50 mM Tris(pH 7.0), 1mM DTT, 0.5 mM EDTA, 10% Glycerol buffer containing 1∼100 µM of enzyme substrate, Ac-YVAD-AMC or Ac-DEVD-AMC and then the changes by isolated AMC at 37°C were recorded. The inhibitory activity for caspases was calculated from the early enzyme reaction rate by measuring the changes with fluorescence excited at […] and emitted at 460 nm (Range; Ki<100nM).
# caspase-3 = molecular target: T2, caspase-3 (Homo sapiens, UniProt P42574); assay: as above; assay type: biochemical; conditions: Irreversible Inhibitors
# T2 construct: made in house
# T2 sequence (P42574 29-175 limits assumed): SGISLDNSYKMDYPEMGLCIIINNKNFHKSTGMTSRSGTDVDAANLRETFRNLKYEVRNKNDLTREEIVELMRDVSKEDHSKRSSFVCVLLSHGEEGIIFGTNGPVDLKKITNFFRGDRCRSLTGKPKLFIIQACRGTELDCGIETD
# T2 sequence (P42574 176-277 limits assumed): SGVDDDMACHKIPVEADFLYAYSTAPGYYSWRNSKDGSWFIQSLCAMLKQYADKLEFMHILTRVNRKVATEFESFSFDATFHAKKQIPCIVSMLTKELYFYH
# Procedure: as §1, §2
compound,measurement,setting,value
"CC1(C(=O)N[C@@H](CC(=O)O)C(=O)COc2ccccc2)CC([C@H](CCC(=O)O)NC(=O)CCC(=O)O)=NO1 (mixture of isomers) [Compound 46, (3S)-3-{3-[(1S)-1-(succinoylamino)-3-carboxy-propyl]-5-methyl-4,5-dihydro-isoxazole-5-carbonylamino}-4-keto-5-phenoxy-pentanoic acid]",EC50,Jurkat T cell; Homo sapiens,1000 to 10000 nM
"CC(C)[C@H](NC(=O)CCC(=O)O)C1=NOC(C)(C(=O)N[C@@H](CC(=O)O)C(=O)COc2ccccc2)C1 (mixture of isomers) [Compound 47, (3S)-3-{3-[2-methyl-(1S)-1-(succinoylamino)-propyl]-5-methyl-4,5-dihydro-isoxazole-5-carbonylamino}-4-keto-5-phenoxy-pentanoic acid]",EC50,Jurkat T cell; Homo sapiens,1000 to 10000 nM
"CC(C)[C@H](NC(=O)CCC(=O)O)C1=NOC(C)(C(=O)N[C@@H](CC(=O)O)C(=O)COc2ccc3ccccc3c2)C1 (single isomer, unassigned) [Compound 81]",EC50,Jurkat T cell; Homo sapiens,1000 to 10000 nM
"CC(=O)N[C@@H](CC(=O)O)C(=O)N[C@@H](CCC(=O)O)C(=O)N[C@H](C(=O)N[C@H](C=O)CC(=O)O)C(C)C [Ac-DEVD-CHO, reference compound]",viability ratio,WI38 cells; Conc. 0.4 µM,12.16%
same,viability ratio,WI38 cells; Conc. 2 µM,14.75%
same,viability ratio,WI38 cells; Conc. 10 µM,19.16%
same,viability ratio,"WI38 cells; Conc. 50 µM, 50 µM",35.1% and 35.14%
"CC(C)[C@H](NC(=O)c1ccc2ccccc2c1)C1=NOC(COc2ccccc2)(C(=O)N[C@@H](CC(=O)O)C(=O)COc2ccc3ccccc3c2)C1 (stereo partly drawn) [Compound 25mp, (3S)-3-{3-[(1S)-1-(naphthalene-2-carbonylamino)-2-methyl-propyl]-5-phenoxymethyl-4,5-dihydro-isoxazole-5-carbonylamino}-4-keto-5-(2-naphthyloxy)-pent anoic acid]",EC50,Jurkat T cell; Homo sapiens,1000 to 10000 nM
same,Ki,caspase-1,0.0721 nM
"CC(C)[C@H](NC(=O)c1ccc2ccccc2c1)C1=NOC(Cc2ccccc2)(C(=O)N[C@@H](CC(=O)O)C(=O)COC(=O)c2c(Cl)cccc2Cl)C1 (stereo partly drawn) [Compound 28, (3S)-3-{3-{(1S)-1-(naphthalene-2-carbonylamino)-2-methyl-propyl]-5-phenylmethyl-4,5-dihydro-isoxazole-5-carbonylamino}-4-keto-5-(2,6-dichlorobenzoyloxy)-pentanoic acid]",viability at 0.4 µM,"WI38 cells; Homo sapiens, WI-38, WI38 cells, Conc. 0.4 µM, read-out: viability ratio",14.7%
same,viability at 2 µM,"WI38 cells; Homo sapiens, WI-38, WI38 cells, Conc. 2 µM, read-out: viability ratio",17.3%
same,viability at 10 µM,"WI38 cells; Homo sapiens, WI-38, WI38 cells, Conc. 10 µM, read-out: viability ratio",82.4%
same,viability at 50 µM,"WI38 cells; Homo sapiens, WI-38, WI38 cells, Conc. 50 µM, read-out: viability ratio",90%
same,viability ratio,"WI38 cells; Conc. 50 µM, listed as Comp 28, 50 µM",90.39%
"CC(C)[C@H](NC(=O)c1ccc2ccccc2c1)C1=NOC(C(=O)N[C@@H](CC(=O)O)C(=O)COc2ccc3ccccc3c2)C1 (stereo partly drawn) [Compound 29, (3S)-3-{3-[(1S)-1-(naphthalene-2-carbonylamino)-2-methyl-propyl]-4,5-dihydro-isoxazole-5-carbonylamino}-4-keto-5-(2-naphthyloxy)-pentanoic acid]",EC50,Jurkat T cell; Homo sapiens,1000 to 10000 nM
"CC(C)[C@H](NC(=O)c1ccc2ccccc2c1)C1=NOC(C(=O)N[C@@H](CC(=O)O)C(=O)COc2ccccc2)C1 (stereo partly drawn) [Compound 30, (3S)-3-{3-[2-methyl-(1S)-1-(2-naphthalenecarbonylamino)-propyl]-4,5-dihydro-isoxazole-5-carbonylamino}-4-keto-5-phenoxy-pentanoic acid]",EC50,Jurkat T cell; Homo sapiens,1000 to 10000 nM
"CC(C)[C@H](NC(=O)c1ccc2ccccc2n1)C1=NOC(Cc2ccccc2)(C(=O)N[C@@H](CC(=O)O)C(=O)COc2ccccc2)C1 (stereo partly drawn) [Compound 43mp, (3S)-3-{3-[2-methyl-(1S)-1-(quinoline-2-yl-carbonylamino)-propyl]-5-phenylmethyl-4,5-dihydro-isoxazole-5-carbonylamino}-4-keto-5-phenoxy-pentanoic acid]",EC50,Jurkat T cell; Homo sapiens,1000 to 10000 nM
same,Ki,caspase-1,4 nM
"CC(C)[C@H](NC(=O)c1cccc2ccccc12)C1=NOC(Cc2ccccc2)(C(=O)N[C@@H](CC(=O)O)C(=O)CN2CCCCC2)C1 (stereo partly drawn) [Compound 48, (3S)-3-{3-[2-methyl-(1S)-1-(1-naphtalenylcarbonylamino)-propyl]-5-phenylmethyl-4,5-dihydro-isoxazole-5-carbonylamino}-4-keto-5-(1-piperidinyl)-pentanoic acid]",EC50,Jurkat T cell; Homo sapiens,1000 to 10000 nM
"CC(C)[C@H](NC(=O)c1cc2ccccc2[nH]1)C1=NOC(Cc2ccccc2)(C(=O)N[C@@H](CC(=O)O)C(=O)COC(=O)c2c(Cl)cccc2Cl)C1 (stereo partly drawn) [Compound 64, (3S)-3-{3-[2-methyl-(1S)-1-(indole-2-carbonylamino)-propyl]-5-phenylmethyl - 4,5-dihydro-isoxazole-5-carbonylamino}-4-keto-5-(2,6-dichlorobenzoyloxy)-pe ntanoic acid]",EC50,Jurkat T cell; Homo sapiens,1000 to 10000 nM
"CC(C)[C@H](NC(=O)c1c[nH]c2ccccc12)C1=NOC(Cc2ccccc2)(C(=O)N[C@@H](CC(=O)O)C(=O)COC(=O)c2c(Cl)cccc2Cl)C1 (stereo partly drawn) [Compound 66, (3S)-3-{3-[2-methyl-(1S)-1-(indole-3-carbonylamino)-propyl]-5-phenylmethyl - 4,5-dihydro-isoxazole-5-carbonylamino}-4-keto-5-(2,6-dichlorobenzoyloxy)-pe ntanoic acid]",EC50,Jurkat T cell; Homo sapiens,1000 to 10000 nM
"CC(C)[C@H](NC(=O)c1cccc2ccccc12)C1=NOC(C)(C(=O)N[C@@H](CC(=O)O)C(=O)COC(=O)c2c(Cl)cccc2Cl)C1 (stereo partly drawn) [Compound 68, (3S)-3-{3-[2-methyl-(1S)-1-(naphthalene-1-carbonylamino)-propyl]-5-methyl-4,5-dihydro-isoxazole-5-carbonylamino}-4-keto-5-(2,6-dichlorobenzoyloxy)-pen tanoic acid]",EC50,Jurkat T cell; Homo sapiens,1000 to 10000 nM
"CC(C)[C@H](NC(=O)CCC(=O)O)C1=NOC(C)(C(=O)N[C@@H](CC(=O)O)C(=O)COC(=O)c2c(Cl)cccc2Cl)C1 (stereo partly drawn) [Compound 74, (3S)-3-{3-[2-methyl-(1S)-1-(succinoylamino)-propyl]-5-methyl-4,5-dihydro-isoxazole-5-carbonylamino}-4-keto-5-(2,6-dichlorobenzoyloxy)-pentanoic acid]",Kobs/[I] for caspase-3,caspase-3,40900 M⁻¹ s⁻¹
same,Kobs/[I] for caspase-1,caspase-1; Irreversible Inhibitors,14500 M⁻¹ s⁻¹
"CC(C)[C@H](NC(=O)CCC(=O)O)C1=NOC(C)(C(=O)N[C@@H](CC(=O)O)C(=O)CN2CCCCC2)C1 (stereo partly drawn) [Compound 77, (3S)-3-{3-[2-methyl-(1S)-1-(succinoylamino)-propyl]-5-methyl-4,5-dihydro-isoxazole-5-carbonylamino}-4-keto-5-(N-piperidine)-pentanoic acid]",EC50,Jurkat T cell; Homo sapiens,1000 to 10000 nM
same,Ki,caspase-1,28900 nM
"CCCCCC1(C(=O)N[C@@H](CC(=O)O)C(=O)COC(=O)c2c(Cl)cccc2Cl)CC([C@@H](NC(=O)CCC(=O)O)C(C)C)=NO1 (stereo partly drawn) [Compound 90, (3S)-3-{3-[2-methyl-(1S)-1-(succinoylamino)-propyl]-5-n-pentyl-4,5-dihydro-isoxazole-5-carbonylamino}-4-keto-5-(2,6-dichlorobenzoyloxy)-pentanoic acid]",Kobs/[I] for caspase-3,caspase-3,80100 M⁻¹ s⁻¹
"CC(C)[C@H](NC(=O)[C@H](CCC(=O)O)NC(=O)[C@H](CC(=O)O)NC(=O)OCc1ccccc1)C(=O)N[C@@H](CC(=O)O)C(=O)CCl [z-DEVD-cmk, reference compound]",viability ratio,WI38 cells; Conc. 0.4 µM,15.13%
same,viability ratio,WI38 cells; Conc. 2 µM,16.27%
same,viability ratio,WI38 cells; Conc. 10 µM,27.38%
same,viability ratio,"WI38 cells; Conc. 50 µM, 50 µM",47.3% and 47.32%
"(3S)-3-{3-[(1S)-1-(quinoline-2-yl-carbonylamino)-2-methyl-propyl]-5-phenox ymethyl-4,5-dihydro-isoxazole-5-carbonylamino}-4-keto-pentanoic acid [Compound 22mp]",EC50,Jurkat T cell,1000 to 10000 nM
same,Ki,caspase-1,0.125 nM
